According to PubChem BioAssay (NCI):
Where “and” joins values, the source holds several entries; their conditions need not be identical. Identical values can stand only once.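 Each compound was tested at five concentrations against cells in 96-well plates for 48 hours. At the GI50, growth is halved. At the TGI there is no net growth.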

Experiments:
Test in all cases: NCI anticancer screen, dose series, 48 h
SR leukemia = test system: SR leukemia
NCI-H23 lung = test system: NCI-H23 lung
M19-MEL melanoma = test system: M19-MEL melanoma
OVCAR-8 ovarian = test system: OVCAR-8 ovarian
KM20L2 colon = test system: KM20L2 colon
CCRF-CEM leukemia = test system: CCRF-CEM leukemia
SF-539 CNS = test system: SF-539 CNS
HS 578T breast = test system: HS 578T breast
T-47D breast = test system: T-47D breast
MCF7 breast = test system: MCF7 breast

| SMILES | TGI (SR leukemia) | TGI (NCI-H23 lung) | TGI (M19-MEL melanoma) | TGI (OVCAR-8 ovarian) | TGI (KM20L2 colon) | TGI (CCRF-CEM leukemia) | TGI (SF-539 CNS) | GI50 (HS 578T breast) | TGI (HS 578T breast) | GI50 (T-47D breast) | TGI (T-47D breast) | GI50 (SR leukemia) | GI50 (NCI-H23 lung) | GI50 (OVCAR-8 ovarian) | GI50 (MCF7 breast) | TGI (MCF7 breast) | GI50 (CCRF-CEM leukemia) | GI50 (SF-539 CNS) | GI50 (KM20L2 colon) |
| --- | --- | --- | --- | --- | --- | --- | --- | --- | --- | --- | --- | --- | --- | --- | --- | --- | --- | --- | --- |
| O=C(Nc1nc2ncn(CCI)c2c(=O)[nH]1)c1ccccc1 | > 100 µM | > 100 µM | > 100 µM | > 62.2 µM | > 100 µM | > 100 µM | > 64.6 µM |  |  |  |  |  |  |  |  |  |  |  |  |
| O=[N+]([O-])c1nccn1CC(O)c1ccc(F)cc1 (stereo unspecified) |  | > 100 µM | > 100 µM | > 100 µM | > 100 µM | > 100 µM | > 100 µM |  |  |  |  |  |  |  |  |  |  |  |  |
| CCN1CCN(c2ccc(Nc3cc(N(C)C(=O)Nc4c(Cl)c(OC)cc(OC)c4Cl)ncn3)cc2)CC1 | 4.63 µM | 44.6 µM |  | 22.9 µM |  | 6.01 µM | 7.99 µM | 1.34 µM | 9.2 µM | 2.51 µM | 6.49 µM | 2.02 µM | 4.35 µM | 3.07 µM | 2.41 µM | 11.8 µM | 1.9 µM | 3.11 µM |  |
| Cc1ccc(S(=O)(=O)NCC2CCCCC2=O)cc1 (stereo unspecified) |  | > 100 µM | > 100 µM | > 100 µM | > 100 µM | > 100 µM | > 100 µM |  |  |  |  |  |  |  |  |  |  |  |  |
| C=C(C=O)[C@@H]1C2OC(=O)C(=C)[C@@H]2CC(O)[C@@]1(C)CC (stereo partly specified) | 12.3 µM | 13.3 µM | 14.3 µM | 20.4 µM | 24.9 µM | 6.44 µM | 23.6 µM |  |  |  |  |  |  |  |  |  |  |  |  |
| O=C1CN=C(C[N+](=O)[O-])c2ccccc21 | > 100 µM | > 100 µM |  | > 100 µM | > 100 µM |  | > 100 µM |  |  |  |  |  |  |  |  |  |  |  |  |
| CCCCOC(=O)C1C(c2ccc(Cl)cc2)NC(c2ccc(Cl)cc2)C(C(=O)OCCCC)S1(=O)=O (stereo unspecified) | > 100 µM | > 100 µM | > 100 µM | > 100 µM | > 100 µM | > 100 µM | > 100 µM |  |  |  |  |  |  |  |  |  |  |  |  |
| COc1ccc(N2C(=O)C(c3ccccc3)(c3ccccc3)C23C(=O)N(C)c2ccccc23)cc1 (stereo unspecified) | > 100 µM | > 100 µM |  | > 100 µM |  | > 100 µM | > 100 µM | > 100 µM | > 100 µM | > 100 µM | > 100 µM | > 100 µM | > 100 µM | > 100 µM | > 100 µM | > 100 µM | > 100 µM | > 100 µM |  |
| Clc1coc2nc3ccccc3c(Nc3ccc4c(c3)OCO4)c12 | 0.938 µM | 22 µM |  | 21.2 µM |  | 6.96 µM | 7.42 µM | 1.89 µM | 5.37 µM | 13.4 µM | > 100 µM | 0.201 µM | 0.983 µM | 2.33 µM | 1.81 µM | > 100 µM | 1.54 µM | 2.46 µM |  |
| C=C(F)C(=O)N1CCN(c2nc(OC[C@@H]3CCCN3C)nc3c2CCN(c2cccc4cccc(Cl)c24)C3)C[C@@H]1CC#N | 2.6 µM | 1.58 µM |  | 1.79 µM |  | 4.32 µM | 2.25 µM | 1.76 µM | 4.4 µM | 1.24 µM | 3.07 µM | 0.657 µM | < 0.01 µM | 0.473 µM | 1.05 µM | 2.96 µM | 1.05 µM | 0.936 µM |  |
| CC(C)(C)OC(=O)NCC(=O)OCc1ccccc1 |  | > 100 µM | > 100 µM | > 100 µM |  | > 100 µM | > 100 µM |  |  |  |  |  |  |  |  |  |  |  |  |
| O=S(O)CCCCSSCC(O)C(O)CSSCCCCS(=O)O (stereo unspecified) |  | 42.3 µM and > 100 µM | 15.6 µM and 29.7 µM | 96.5 µM and > 100 µM | > 100 µM | 31.9 µM and 26.2 µM | 69.7 µM and > 100 µM |  |  |  |  |  |  |  |  |  |  |  |  |
| O=C1c2ccccc2C(=O)C1(Cl)C1(S(=O)(=O)O)c2ccccc2-c2ccccc21 | > 100 µM | > 100 µM | > 100 µM | > 100 µM | > 100 µM | > 100 µM | > 100 µM |  |  |  |  |  |  |  |  |  |  |  |  |
| CS(=O)(=O)N/N=C/CN1C(=O)c2ccccc2C1=O | > 100 µM | > 100 µM | > 100 µM | > 100 µM | > 100 µM | > 100 µM | > 100 µM |  |  |  |  |  |  |  |  |  |  |  |  |
| O=S(=O)(Nc1cc(F)cc(Cl)c1)c1ccc(-c2cnc(C3CC3)o2)cc1 | > 100 µM | 18.3 µM |  | 21.5 µM |  | > 100 µM | 10.5 µM | 1.02 µM | 17.2 µM | 1.7 µM | 33.5 µM | 0.462 µM | 2.62 µM | 3.72 µM | 0.485 µM | 23 µM | 1.71 µM | 1.25 µM |  |
| CCOc1nc(-c2ccccc2)cc2c(O)c(-c3nnco3)[nH]c(=O)c12 | > 100 µM | > 100 µM |  | > 100 µM |  | > 100 µM | > 47.1 µM | 5.39 µM | 30.1 µM | 0.251 µM | 9.93 µM | 3.85 µM | 4.01 µM | 4.24 µM | 0.507 µM | > 100 µM | 3.04 µM | 4.39 µM |  |
| CC(=O)O.CC(=O)O.CC(=O)O.CC(=O)O.CC(=O)O.CC(=O)O.O.[Ti].[Ti] | > 100 µM |  |  | > 100 µM | > 100 µM | > 100 µM | > 100 µM |  |  |  |  | > 100 µM |  | > 100 µM |  |  | > 100 µM | > 100 µM | > 100 µM |
| Cn1cc(C2=C(c3ccc4ccccc4c3)C(=O)NC2=O)c2ccccc21 | > 25 µM | > 25 µM |  | > 25 µM |  | > 25 µM | > 25 µM | > 17.7 µM | > 25 µM | > 25 µM | > 25 µM | 3.11 µM | > 25 µM | > 25 µM | 2.19 µM | > 25 µM | > 25 µM | > 25 µM |  |
| C=C(C=O)C1CCC2(C(=O)O)CCC3(C)C(CCC4C5(C)CCC(O)C(C)(C)C5CCC43C)C12 (stereo unspecified) | > 100 µM | 3.3 µM |  | 32.2 µM |  | > 46.6 µM | 8.06 µM | 10.1 µM | > 100 µM | 5.19 µM | 34.1 µM | 2.23 µM | 1.63 µM | 4.09 µM | 2.76 µM | 14.3 µM | 2.68 µM | 2.83 µM |  |
